The record followed here is patent EP4786451A1, “COMPOUND TARGETING INTEGRIN AND USE THEREOF IN RNAI AGENT” (YUN HO BIO CO., LTD, priority 2023, dated 2025).

One assay has as its target Integrin αvβ6 Receptor (Homo sapiens, UniProt P06756+P18564). Kind of assay: HTRF binding activity to integrin αvβ6 receptor (competition with LAP (TGF-beta 1)). The protocol: Main Experimental Reagents and Consumables
Inhibition rate and fit IC50 was calculated using Excel and XL-Fit respectively, formula as follows: Inhibition % = (Max−Signal)/(Max−Min)*100 [formula] Y = Bottom + (Top−Bottom)/(1+(IC50/X)[…]), [formula] Y and X represent %inhibition and compound concentration respectively

For the next assay, the target named is Integrin αvβ1 Receptor (Homo sapiens, UniProt P05556+P06756). In words: Fluorescence polarization (FP) binding activity to integrin αvβ1 receptor (competition with Cyclo[-RGDy-K(5-FAM)]). Conditions: Table 4, different integrin receptors.
Sequence of Integrin αvβ1 Receptor (P06756 31-992 limits assumed): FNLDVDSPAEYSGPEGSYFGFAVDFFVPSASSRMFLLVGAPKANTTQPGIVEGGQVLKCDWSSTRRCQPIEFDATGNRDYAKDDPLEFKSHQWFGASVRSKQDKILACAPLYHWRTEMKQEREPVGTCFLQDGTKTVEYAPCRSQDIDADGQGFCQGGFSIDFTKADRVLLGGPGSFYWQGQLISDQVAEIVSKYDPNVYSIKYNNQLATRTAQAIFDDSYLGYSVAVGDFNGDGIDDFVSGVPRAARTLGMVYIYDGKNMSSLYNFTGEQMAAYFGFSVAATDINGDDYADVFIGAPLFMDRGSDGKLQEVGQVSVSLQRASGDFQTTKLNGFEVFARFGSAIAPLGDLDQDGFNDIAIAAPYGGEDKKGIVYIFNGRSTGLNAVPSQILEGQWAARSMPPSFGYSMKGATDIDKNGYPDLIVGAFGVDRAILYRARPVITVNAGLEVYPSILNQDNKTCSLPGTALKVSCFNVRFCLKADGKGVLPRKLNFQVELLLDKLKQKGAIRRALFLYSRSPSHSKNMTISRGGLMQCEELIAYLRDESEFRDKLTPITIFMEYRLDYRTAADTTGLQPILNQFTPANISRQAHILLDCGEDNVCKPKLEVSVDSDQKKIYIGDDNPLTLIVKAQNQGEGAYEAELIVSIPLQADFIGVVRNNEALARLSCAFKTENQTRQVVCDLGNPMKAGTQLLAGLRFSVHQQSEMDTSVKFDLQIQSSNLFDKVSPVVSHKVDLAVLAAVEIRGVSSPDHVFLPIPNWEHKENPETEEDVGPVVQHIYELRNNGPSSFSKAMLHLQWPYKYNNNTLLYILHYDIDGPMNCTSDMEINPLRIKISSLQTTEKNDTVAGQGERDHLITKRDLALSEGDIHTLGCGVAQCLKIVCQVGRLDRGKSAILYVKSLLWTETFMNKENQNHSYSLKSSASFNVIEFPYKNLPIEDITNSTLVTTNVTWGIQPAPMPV
Sequence of Integrin αvβ1 Receptor (P05556 21-728 limits assumed): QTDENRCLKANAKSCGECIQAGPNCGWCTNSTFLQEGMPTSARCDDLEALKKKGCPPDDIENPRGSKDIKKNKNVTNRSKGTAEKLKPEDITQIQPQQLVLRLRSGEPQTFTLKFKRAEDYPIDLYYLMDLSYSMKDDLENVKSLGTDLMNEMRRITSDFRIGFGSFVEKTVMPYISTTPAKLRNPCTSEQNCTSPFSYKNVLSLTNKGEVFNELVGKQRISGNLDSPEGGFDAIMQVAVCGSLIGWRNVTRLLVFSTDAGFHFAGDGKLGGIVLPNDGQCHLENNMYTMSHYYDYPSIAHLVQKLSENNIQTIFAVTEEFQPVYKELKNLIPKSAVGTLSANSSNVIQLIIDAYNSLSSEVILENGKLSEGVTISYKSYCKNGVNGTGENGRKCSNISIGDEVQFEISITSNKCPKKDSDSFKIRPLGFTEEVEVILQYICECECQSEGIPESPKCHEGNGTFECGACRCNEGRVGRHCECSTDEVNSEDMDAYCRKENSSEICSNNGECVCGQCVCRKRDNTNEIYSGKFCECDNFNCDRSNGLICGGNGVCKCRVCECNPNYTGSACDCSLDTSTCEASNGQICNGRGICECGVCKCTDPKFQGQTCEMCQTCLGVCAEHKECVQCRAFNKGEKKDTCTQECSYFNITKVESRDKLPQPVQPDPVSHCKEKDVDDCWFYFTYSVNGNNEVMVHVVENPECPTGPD
The target in a further assay is Integrin αvβ5 Receptor (Homo sapiens, UniProt P06756+P18084). Kind of assay: HTRF binding activity to integrin αvβ5 receptor (competition with Vitronectin). Conditions: IC50 (nM) αvβ5, Table 4, different integrin receptors.
Sequence of Integrin αvβ5 Receptor (P06756 31-992 limits assumed): as the sequence (P06756 31-992 limits assumed) above
Sequence of Integrin αvβ5 Receptor (P18084 24-719 limits assumed): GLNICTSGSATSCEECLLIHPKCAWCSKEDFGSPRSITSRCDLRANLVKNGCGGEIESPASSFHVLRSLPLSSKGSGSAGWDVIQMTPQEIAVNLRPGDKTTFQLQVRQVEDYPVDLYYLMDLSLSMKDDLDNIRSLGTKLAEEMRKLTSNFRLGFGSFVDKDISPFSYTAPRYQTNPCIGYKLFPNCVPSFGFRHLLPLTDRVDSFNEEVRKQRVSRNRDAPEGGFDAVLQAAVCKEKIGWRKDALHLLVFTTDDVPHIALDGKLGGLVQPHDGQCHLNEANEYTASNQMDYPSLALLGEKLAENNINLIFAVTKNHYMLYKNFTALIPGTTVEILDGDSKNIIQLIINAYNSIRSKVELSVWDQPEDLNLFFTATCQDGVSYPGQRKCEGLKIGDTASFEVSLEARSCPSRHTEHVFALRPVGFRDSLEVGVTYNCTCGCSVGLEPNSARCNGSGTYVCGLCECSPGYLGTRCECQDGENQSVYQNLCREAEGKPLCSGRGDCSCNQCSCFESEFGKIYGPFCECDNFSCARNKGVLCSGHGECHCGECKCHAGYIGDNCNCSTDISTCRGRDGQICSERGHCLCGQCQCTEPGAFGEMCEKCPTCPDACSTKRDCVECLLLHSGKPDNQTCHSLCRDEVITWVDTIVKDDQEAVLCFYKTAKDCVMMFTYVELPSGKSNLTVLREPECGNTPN
Setting [1] is: Integrin αvβ6, HTRF, Table 3, several runs, each with Cilengitide and 1 as references, read-out: IC50.
[2] abbreviates: Table 4, different integrin receptors, read-out: IC50 (nM) αvβ6.

Read-outs that look alike come from different tables or passages of the source.

Sequence of Integrin αvβ6 Receptor (P06756 31-992 limits assumed): as the sequence (P06756 31-992 limits assumed) above
Sequence of Integrin αvβ6 Receptor (P18564 22-707 limits assumed): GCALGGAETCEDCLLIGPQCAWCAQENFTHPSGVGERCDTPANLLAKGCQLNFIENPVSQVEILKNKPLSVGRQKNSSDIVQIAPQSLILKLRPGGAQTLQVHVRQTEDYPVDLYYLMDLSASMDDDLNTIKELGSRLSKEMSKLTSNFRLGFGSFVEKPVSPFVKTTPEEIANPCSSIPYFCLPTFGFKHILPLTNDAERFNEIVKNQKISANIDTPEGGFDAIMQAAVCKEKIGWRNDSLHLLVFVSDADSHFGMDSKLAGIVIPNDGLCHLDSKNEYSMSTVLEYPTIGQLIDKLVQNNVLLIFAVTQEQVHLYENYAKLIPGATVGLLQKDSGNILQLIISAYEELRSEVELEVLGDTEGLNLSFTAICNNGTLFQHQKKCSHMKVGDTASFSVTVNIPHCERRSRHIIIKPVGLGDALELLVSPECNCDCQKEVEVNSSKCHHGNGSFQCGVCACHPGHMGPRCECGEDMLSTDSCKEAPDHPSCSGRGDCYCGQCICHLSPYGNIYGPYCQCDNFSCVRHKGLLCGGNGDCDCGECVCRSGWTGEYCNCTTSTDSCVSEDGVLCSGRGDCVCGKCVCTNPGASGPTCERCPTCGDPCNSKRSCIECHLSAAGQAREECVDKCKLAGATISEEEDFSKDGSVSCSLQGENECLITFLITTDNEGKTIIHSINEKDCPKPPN
Procedure for Integrin αvβ5 Receptor: B. Evaluation of Compound Binding Activity to Integrin αvβ5 Receptor using Homogeneous Time-Resolved Fluorescence (HTRF) Technology
Compound Preparation: Same as A.
Reagent Preparation: Assay buffer was prepared.
Then 5 µL of integrin receptor protein αvβ5 was added (5 µL of assay buffer was added for negative control), incubated at room temperature for 20 minutes. Next, 5 µL of ligand protein VTN, and 10 µL of the SA-Tb and Anti-His XL665 mixture were added respectively, incubated at room temperature for 1 hour.

Consider `Cc1ccnc(NCCC2CCN(CC(=O)NC(CC(=O)O)c3ccc(-c4ccc(OCCOCCOCCOCCOCCN=[N+]=[N-])c5ccccc45)cc3)C2=O)c1` (single isomer, unassigned) [Compound 5-P1], for which the 50% inhibitory concentration (IC50) came to 3.6 nM at Integrin αvβ6 Receptor (setting [1]), 3.6 nM at Integrin αvβ6 Receptor (setting [2]), 753 nM on Integrin αvβ1 Receptor and 83.4 nM at Integrin αvβ5 Receptor. At Integrin αvβ6 Receptor (αvβ6 compared with αvβ1 and αvβ5), the “specific binding ability to the αvβ6 receptor” value is recorded as “specific binding ability to the αvβ6 receptor”.

Take `[N-]=[N+]=NCCOCCOCCOCCOCCOc1ccc([C@H](CC(=O)O)CN2CC[C@@H](CCc3ccc4c(n3)NCCC4)C2)cc1` (single isomer, unassigned) [Compound 20-P1]: the IC50 stood at 3.7 nM at Integrin αvβ6 Receptor (setting [1]), 3.7 nM at Integrin αvβ6 Receptor (setting [2]), 8.1 nM on Integrin αvβ1 Receptor and 0.7 nM on Integrin αvβ5 Receptor.
